The compounds below were run on HCV replicon (assay: HCV replicon replication assay (NPT level by captured ELISA)). Settings: Hepatitis C virus, 72 h; Huh-7 HCV replicon-containing cells, three days incubation; read-out: Activity (inhibition of HCV replicon replication).
Format: cell-based
Protocol: Compounds claimed herein are tested for the ability to inhibit viral replication of the Hepatitis C replicon in cultured cells in which the HCV replicon construct has been incorporated. The HCV replicon system was described by Bartenschlager, et. al (Science, 285, pp. 110-113 (1999)). The replicon system is predictive of in vivo anti-HCV activity; compounds that are active in humans uniformly evidence activity in the replicon assay.
In this assay HCV replicon containing cells are treated with different concentrations of the test compound to ascertain the ability of the test compound to suppress replication of the HCV replicon. As a positive control, HCV replicon-containing cells are treated with different concentrations of interferon alpha, a known inhibitor of HCV replication. The replicon assay system includes Neomycin Phosphotransferase (NPT) as a component of the replicon itself in order to detect the transcription of replicon gene products in the host cell. Cells in which the HCV replicon is actively replicating have high levels of NPT; the level of NPT is proportional to HCV replication. […] The NPT level of each sample is measured using a captured ELISA.
A protocol for testing compounds for the ability to inhibit viral replication of the Hepatitis C replicon cultured cells in which the replicon construct has been incorporated, follows.
The HCV replicon contains, 5′-3′, the HCV-IRES, the neomycin phosphotransferase (neo) gene, the IRES of encephalomyocarditis virus, which directs translation of HCV sequences NS3 to NS5B, and the 3′-NTR. The sequence of the HCV replicon has been deposited in GenBank (Accession no. AJ242652).
The replicon is transfected into Huh-7 cells using standard methods such as electroporation.
The equipment and materials include, but are not limited to, Huh-7 HCV replicon-containing cells, maintenance media (DMEM (Dulbecco's modified Eagle media) supplemented with 10% FBS, L-glutamine, non-essential amino acids, penicillin (100 units/ml), streptomycin (100 micrograms/ml), and 500 micrograms/ml of Geneticin (G418), screening media (DMEM supplemented with 10% FBS, L-glutamine, non-essential amino acids, penicillin (100 units/ml) and streptomycin (100 micrograms/ml)), 96 well tissue culture plates (flat bottom), 96 well plates (U bottom for drug dilution), Interferon alpha for positive control, fixation reagent (such as methanol: acetone), primary antibody (rabbit anti-NPTII), secondary antibody: Eu—N1 1, and enhancement solution.
HCV replicon-containing cells are rinsed with once PBS once; 2 mls of trypsin are then added. Cells are incubated at 37° C. in a 5% CO2 incubator for 3-5 minutes. 10 mls of complete medium is added to stop the reaction. Cells are blown gently, put into a 15 ml tube, and spun at 1200 rpm for four minutes. The trypsin/medium solution is removed and 5 mls of medium (500 ml DMEM (high glucose)) from BRL catalog #12430-054; 50 mls 10% FBS, 5% Geneticin G418 (50 mg/ml, BRL catalog #10131-035), 5 ml MEM non-essential amino acids (100×BRL #11140-050) and 5 ml pen-strep (BRL #15140-148) is added. The cells and media are mixed carefully
Cells are plated with screening medium (500 ml DMEM (BRL #21063-029), 50 ml FBS (BRL #10082-147) and 5 ml MEM non-essential amino acid (BRL #11140-050) at 6000-7500 cells/100 μl/well of 96 well plate (6-7.5×10^5 cells/10 ml/plate). Plates are placed into 37° C. 5% CO2 incubator overnight.
The following morning, drugs (test compounds or interferon alpha) are diluted in 96 well U bottom plates with media or DMSO/media, depending on the final concentration chosen for screening. Generally for 6 concentrations of each test compounds ranging from 10 micromolar to 0.03 micromolar are applied. 100 μl of the test compound dilution is placed in wells of the 96 well plate containing the HCV replicon cells. Media without drug is added to some wells as a negative controls. DMSO is known to affect cell growth. […]

Row | Compound | EC50 [nM]
1 | Cc1cccc(OCCCc2ccc(Nc3nc(-c4cccnc4)cs3)cc2C(F)(F)F)c1 [Cmp 91, 4-(pyridin-3-yl)-N-(4-(3-(m-tolyloxy)propyl)-3-(trifluoromethyl)phenyl)thiazol-2-amine] | < 1000
2 | Fc1ccc(CCCCCc2ccc(Nc3nc(-c4cccnc4)c(F)s3)cc2C(F)(F)F)cc1 [Cmp 217, 5-fluoro-N-(4-(5-(4-fluorophenyl)pentyl)-3-(trifluoromethyl)phenyl)-4-(pyridin-3-yl)thiazol-2-amine] | < 1000
3 | CCCCCCCCc1c(F)cc(Nc2nc(-c3cccnc3)c(F)s2)cc1F [Cmp 138, N-(3,5-difluoro-4-octylphenyl)-5-fluoro-4-(pyridin-3-yl)thiazol-2-amine] | < 1000
4 | CCCCCCCCOc1cc(Nc2nc(-c3ccc(F)cc3)c(F)s2)ccc1C [Cmp 62, 5-fluoro-4-(4-fluorophenyl)-N-(4-methyl-3-(octyloxy)phenyl)thiazol-2-amine] | < 1000
5 | Cc1ccc(Nc2nc(-c3ccc(F)cc3)c(F)s2)cc1OCC1CCCCC1 [Cmp 61, N-(3-(cyclohexylmethoxy)-4-methylphenyl)-5-fluoro-4-(4-fluorophenyl)thiazol-2-amine] | < 1000
6 | CC(=O)c1cc(Nc2nc(-c3cccnc3)cs2)ccc1Oc1ccccc1 [Cmp 85, 1-(2-phenoxy-5-(4-(pyridin-3-yl)thiazol-2-ylamino)phenyl)ethanone] | < 1000
7 | CCCCCCCCOc1ccc(Nc2nc(-c3ccc(F)nc3)c(F)s2)cc1C(F)(F)F [Cmp 175, 5-fluoro-4-(6-fluoropyridin-3-yl)-N-(4-(octyloxy)-3-(trifluoromethyl)phenyl)thiazol-2-amine] | < 1000
8 | CCCCCCCCc1ccc(Nc2nc(-c3ccc(O)nc3)c(F)s2)cc1C(F)(F)F [Cmp 101, 5-(5-fluoro-2-(4-octyl-3-(trifluoromethyl)phenylamino)thiazol-4-yl)pyridin-2-ol] | < 1000
9 | CC(=O)c1cc(Nc2nc(-c3cccnc3)cs2)ccc1Oc1ccc(Cl)cc1 [Cmp 84, 1-(2-(4-chlorophenoxy)-5-(4-(pyridin-3-yl)thiazol-2-ylamino)phenyl)ethanone] | < 1000
10 | CCCCCCCCC1Cc2ccc(Nc3nc(-c4ccc(C)nc4)cs3)cc2O1 (stereo not shown) [Cmp 124, 4-(6-methylpyridin-3-yl)-N-(2-octyl-2,3-dihydrobenzofuran-6-yl)thiazol-2-amine] | < 1000
11 | CCCCCCCCOc1ccc(Nc2nc(-c3cccnc3)c(CN(C)C)s2)cc1C(F)(F)F [Cmp 157, 5-((dimethylamino)methyl)-N-(4-(octyloxy)-3-(trifluoromethyl)phenyl)-4-(pyridin-3-yl)thiazol-2-amine] | 1000 to 10000
12 | Fc1ccc(C#CCCOc2ccc(Nc3nc(-c4cccnc4)c(F)s3)cc2C(F)(F)F)cc1 [Cmp 163, 5-fluoro-N-(4-(4-(4-fluorophenyl)but-3-ynyloxy)-3-(trifluoromethyl)phenyl)-4-(pyridin-3-yl)thiazol-2-amine] | < 1000
13 | CCc1ccc(Oc2ccc(Nc3nc(-c4cccnc4)c(F)s3)cc2C(F)(F)F)cc1 [Cmp 98, N-(4-(4-ethylphenoxy)-3-(trifluoromethyl)phenyl)-5-fluoro-4-(pyridin-3-yl)thiazol-2-amine] | < 1000
14 | C/C=N/N(c1ccc(OCCCCCCCC)cc1)c1nc(-c2cccnc2)cs1 [Cmp 34, (E)-2-(2-ethylidene-1-(4-(octyloxy)phenyl)hydrazinyl)-4-(pyridin-3-yl)thiazole] | < 1000
15 | CCCCCCCCc1ccc(Nc2nc(-c3ccc(O)c(C(N)=O)c3)c(Cl)s2)cc1C(F)(F)F [Cmp 185, 5-(5-chloro-2-(4-octyl-3-(trifluoromethyl)phenylamino)thiazol-4-yl)-2-hydroxybenzamide] | < 1000
16 | COc1ncc(-c2nc(Nc3ccc(C)c(OCC4CCCCC4)c3)sc2F)cn1 [Cmp 63, N-(3-(cyclohexylmethoxy)-4-methylphenyl)-5-fluoro-4-(2-methoxypyrimidin-5-yl)thiazol-2-amine] | < 1000
17 | CCCOCCC#Cc1ccc(Nc2nc(-c3cccnc3)c(F)s2)cc1C(F)(F)F [Cmp 222, 5-fluoro-N-(4-(4-propoxybut-1-ynyl)-3-(trifluoromethyl)phenyl)-4-(pyridin-3-yl)thiazol-2-amine] | < 1000
18 | CCCCCOc1cc(Nc2nc(-c3cccnc3)cs2)ccc1C [Cmp 26, N-(4-methyl-3-(pentyloxy)phenyl)-4-(pyridin-3-yl)thiazol-2-amine] | < 1000
19 | CCCCCCCCOc1cc(Nc2nc(-c3cnc(OC)nc3)cs2)ccc1C(F)(F)F [Cmp 71, 4-(2-methoxypyrimidin-5-yl)-N-(3-(octyloxy)-4-(trifluoromethyl)phenyl)thiazol-2-amine] | < 1000
20 | COc1ncc(-c2csc(Nc3ccc(Oc4ccccc4)c(C(C)=O)c3)n2)cn1 [Cmp 86, 1-(5-(4-(2-methoxypyrimidin-5-yl)thiazol-2-ylamino)-2-phenoxyphenyl)ethanone] | < 1000
21 | CCCCCCCCc1cc(Nc2nc(-c3cccnc3)cs2)cc(C(F)(F)F)c1 [Cmp 80, N-(3-octyl-5-(trifluoromethyl)phenyl)-4-(pyridin-3-yl)thiazol-2-amine] | < 1000
22 | FC(F)(F)c1cc(Nc2nc(-c3cccnc3)cs2)ccc1OCCCCCc1ccccc1 [Cmp 21] | < 1000
23 | CC(=O)c1cc(Nc2nc(-c3cccnc3)c(F)s2)ccc1Oc1ccc(Cl)cc1 [Cmp 130, 1-(2-(4-chlorophenoxy)-5-(5-fluoro-4-(pyridin-3-yl)thiazol-2-ylamino)phenyl)ethanone] | < 1000
24 | CCc1ccc(Oc2ccc(Nc3nc(-c4cnc(OC)nc4)cs3)cc2C(F)(F)F)cc1 [Cmp 53, N-(4-(4-ethylphenoxy)-3-(trifluoromethyl)phenyl)-4-(2-methoxypyrimidin-5-yl)thiazol-2-amine] | < 1000
25 | CCCCCCCCOc1cc(Nc2nc(-c3ccc(F)cc3)cs2)ccc1C(F)(F)F [Cmp 75, 4-(4-fluorophenyl)-N-(3-(octyloxy)-4-(trifluoromethyl)phenyl)thiazol-2-amine] | < 1000
26 | CCCCCCCCOc1cc(Nc2nc(-c3ccc(F)cc3)cs2)ccc1C [Cmp 45, 4-(4-fluorophenyl)-N-(4-methyl-3-(octyloxy)phenyl)thiazol-2-amine] | < 1000
27 | CCCCCCCCOc1ccc(Nc2nc(-c3cccnc3)cs2)cc1C(=O)OC [Cmp 154, methyl 2-(octyloxy)-5-(4-(pyridin-3-yl)thiazol-2-ylamino)benzoate] | < 1000
28 | CCCCCCCCc1ccc(Nc2nc(-c3ccc(O)nc3)cs2)cc1C(F)(F)F [Cmp 100, 5-(2-(4-octyl-3-(trifluoromethyl)phenylamino)thiazol-4-yl)pyridin-2-ol] | < 1000
29 | Cc1ccc(Nc2nc(-c3cccnc3)cs2)cc1OCCOc1ccccc1 [Cmp 37, N-(4-methyl-3-(2-phenoxyethoxy)phenyl)-4-(pyridin-3-yl)thiazol-2-amine] | < 1000
30 | Cc1ccccc1CCCCOc1ccc(Nc2nc(-c3cccnc3)cs2)cc1C(F)(F)F [Cmp 22, 4-(pyridin-3-yl)-N-(4-(4-o-tolylbutoxy)-3-(trifluoromethyl)phenyl)thiazol-2-amine] | < 1000

Same assay, conditions: Hepatitis C virus, Huh-7, 72 h, read-out: Activity (inhibition of HCV replicon replication)

Row | Compound | EC50 [nM]
31 | CCCCCCCCc1ccc(Nc2nc(-c3ccc(OP(=O)(OC)OC)nc3)cs2)cc1C(F)(F)F [Cmp 134, dimethyl 5-(2-(4-octyl-3-(trifluoromethyl)phenylamino)thiazol-4-yl)pyridin-2-yl phosphate] | < 1000

From US8183263B2 (priority 2007, dated 2012)
